“And” between values parts separate entries of the source, which are not always exact repeats. Equal entries are not always repeated. Where two headings read alike, the source gives them in different places.
Columns and labels:
[1] = tested on: A/Hong Kong/8/1968 (H3N2); test: microbe, parasite or virus in culture; assay type: cell-based, Influenza A virus
A/Weiss/1943 (H1N1) = test: microbe, parasite or virus in culture; assay type: cell-based, Influenza A virus
[2] = tested on: A/Puerto Rico/8/1934 (H1N1); test: microbe, parasite or virus in culture; assay type: cell-based, Influenza A virus
[3] = tested on: IAV H1N1 and H3N2 isolates; test: microbe, parasite or virus in culture; assay type: cell-based, Influenza A virus
[4] = tested on: A/Puerto Rico/8/1934 (H1N1); set-up: species or system BALB/c mice; conditions: mouse, in vivo
A/Malaya/302/1954 (H1N1) = test: microbe, parasite or virus in culture; assay type: cell-based, Influenza A virus
[5] = tested on: A/Puerto Rico/8/1934 (H1N1); set-up: species or system BALB/c mice; conditions: mouse, in vivo; remark: listed apart in the source
A/Anhui/1/2013 (H7N9) = test: microbe, parasite or virus in culture; assay type: cell-based; conditions: Influenza A virus, H7N9, MDCK
[6] = tested on: A/Switzerland/971593/2013 (H3N2); test: microbe, parasite or virus in culture; assay type: cell-based; conditions: Influenza A virus, H3N2, MDCK
[7] = tested on: A/Puerto Rico/8/1934 (H1N1); conditions: mouse, in vivo; cited from earlier work
A/Perth/16/2009 (H3N2) = test: microbe, parasite or virus in culture; assay type: cell-based; conditions: Influenza A virus, H3N2, MDCK
A/Kansas/14/2017 (H3N2) = test: microbe, parasite or virus in culture; assay type: cell-based; conditions: Influenza A virus, H3N2, MDCK
[8] = Balb/c, mouse, in vivo
A549 cells = conditions: human
in vitro [9] = conditions: human
[10] = mouse, in vivo; cited from earlier work
B/Florida/78/2015 = test: microbe, parasite or virus in culture; assay type: cell-based; conditions: Influenza B virus, MDCK
[11] = tested on: A/Mexico/4108/2009 (H1N1); test: microbe, parasite or virus in culture; assay type: cell-based; conditions: Influenza A virus, H1N1, MDCK
A/Taiwan/1/2017 (H7N9) = test: microbe, parasite or virus in culture; assay type: cell-based; conditions: Influenza A virus, H7N9, MDCK
[12] = tested on: A/Vietnam/1203/2004 (H5N1); test: microbe, parasite or virus in culture; assay type: cell-based; conditions: Influenza A virus, H5N1, MDCK
[13] = tested on: A/Michigan/45/2015 (H1N1); test: microbe, parasite or virus in culture; assay type: cell-based; conditions: Influenza A virus, H1N1, MDCK
[14] = cited from earlier work
HepG2 cells = conditions: human
in vitro [15] = conditions: dog
[16] = tested on: HPAI H5N1 and H7N9 isolates; test: microbe, parasite or virus in culture; assay type: cell-based; conditions: Influenza A virus, MDCK, read-out: EC50 values, range over isolates
[17] = tested on: A/Hong Kong/213/2003 (H5N1); test: microbe, parasite or virus in culture; assay type: cell-based; conditions: Influenza A virus, H5N1, MDCK
[18] = tested on: A/California/07/2009 (H1N1); test: microbe, parasite or virus in culture; assay type: cell-based; conditions: Influenza A virus, H1N1, MDCK
[19] = tested on: A/Hong Kong/4801/2014 (H3N2); test: microbe, parasite or virus in culture; assay type: cell-based; conditions: Influenza A virus, H3N2, MDCK
[20] = tested on: A/Brisbane/05/2018 (H1N1); test: microbe, parasite or virus in culture; assay type: cell-based; conditions: Influenza A virus, H1N1, MDCK
B/Lee/1940 = test: microbe, parasite or virus in culture; assay type: cell-based; conditions: Influenza B virus, MDCK
[21] = tested on: A/Wilson-Smith/1933 (H1N1); test: microbe, parasite or virus in culture; assay type: cell-based; conditions: Influenza A virus, H1N1, MDCK
[22] = tested on: A/California/2/2014 (H3N2); test: microbe, parasite or virus in culture; assay type: cell-based; conditions: Influenza A virus, H3N2, MDCK
A/WSN/1933 (H1N1) = test: microbe, parasite or virus in culture; assay type: cell-based; conditions: Influenza A virus, MDCK
[23] = tested on: A/cattle/Texas/56283/2024 (H5N1); test: microbe, parasite or virus in culture; assay type: cell-based; conditions: Influenza A virus, H5N1, MDCK
[24] = tested on: A/New York/18/2009 (H1N1); test: microbe, parasite or virus in culture; assay type: cell-based; conditions: Influenza A virus, H1N1, MDCK

## O=C1c2c(O)c(=O)ccn2N([C@@H]2c3ccccc3SCc3c2ccc(F)c3F)[C@@H]2COCCN12 [Baloxavir, baloxavir, reference compound]
[1]; read-out: EC50
  EC50: 0.68 nM
A/Weiss/1943 (H1N1); Influenza A virus, H1N1, MDCK
  EC50: 0.4 nM
[2]; Influenza A virus, H1N1, MDCK
  EC50: 0.57 nM

## CCOC(=O)C1=C[C@@H](OC(CC)CC)[C@H](NC(C)=O)[C@@H](N)C1 [Oseltamivir, oseltamivir, reference compound]
[3]
  shift in EC50 values relative to reference strain: < 2 fold
[1]
  Fold shift: 0.09
[1]; read-out: EC50
  EC50: 90 nM
[4]
  body weight loss leading to euthanasia: > 25%
A/Malaya/302/1954 (H1N1)
  Fold shift: 1.19
A/Weiss/1943 (H1N1); Influenza A virus, H1N1, MDCK
  EC50: 1050 nM
[5]
  Lung viral load: comparable to the vehicle control
[2]; Influenza A virus, H1N1, MDCK
  EC50: 970 nM

## COC[C@@]1(C)COC[C@@H](COc2ccc(-c3cc(C(N)=O)c(O)nc3C(F)(F)F)cc2)O1 [VNT-101]
[3]; Influenza A virus, MDCK, read-out: mean EC50 values, range over isolates
  EC50: 2 to 18 nM
A/Anhui/1/2013 (H7N9)
  EC50: 24 nM
[6]
  EC50: 2.19 nM
  EC90: 3.32 nM
[7]
  protection from lethality, prophylaxis: protected mice from lethality
A/Perth/16/2009 (H3N2)
  EC50: 4.05 nM
  EC90: 5.68 nM
A/Kansas/14/2017 (H3N2)
  EC50: 3.14 nM
  EC90: 18 nM
[8]
  fAUC: 3.045 µM·h
  fCmin: 0.10 µM
[1]; Influenza A virus, H3N2, MDCK
  EC50: > 50000 nM
  EC90: > 50000 nM
[1]; read-out: EC50
  EC50: > 50000 nM
A549 cells
  CC50: > 100000 nM
In vitro [9]; Proliferating condition CC50
  CC50: 72800 nM
In vitro [9]; Stationary condition CC50 (mean)
  CC50: > 80400 nM
In vitro [9]; Stationary condition CC50, individual runs
  CC50: > 100000 nM
[10]
  Cmin: 3.49 ± 1.35 µM
B/Florida/78/2015
  EC50: 43700 nM
  EC90: > 50000 nM
[11]
  EC50: 14.4 nM
  EC90: 112 nM
A/Taiwan/1/2017 (H7N9)
  EC50: 69 nM
[4]
  final mean body weight loss: 21.1%
  maximum mean body weight loss: 24.4%
[4]; 30 mg/kg
  maximum mean body weight loss: 13.6% and 25.1%
[4]; po, 100 mg/kg
  Survival: 33%
[12]
  EC50: 25 nM
[13]
  EC50: 17.7 nM
  EC90: 29.4 nM
[14]
  percent plasma protein binding: 97.1%
HepG2 cells
  CC50: > 100000 nM
In vitro [15]
  CC50: > 100000 nM
[16]
  EC50: 19 to 69 nM
A/Malaya/302/1954 (H1N1); Influenza A virus, H1N1, MDCK
  EC50: > 50000 nM
  EC90: > 50000 nM
A/Weiss/1943 (H1N1)
  EC50: 123 nM
A/Weiss/1943 (H1N1); Influenza A virus, H1N1, MDCK
  EC50: 123 nM
  EC90: 210 nM
[17]
  EC50: 19 nM
[18]
  EC50: 8.39 nM
  EC90: 19.2 nM
[19]
  EC50: 2.59 nM
  EC90: 3.71 nM
[20]
  EC50: 6.55 nM
  EC90: 11.2 nM
B/Lee/1940
  EC50: > 47500 nM
  EC90: > 50000 nM
[2]
  EC50: 2.1 nM and 2 nM
[2]; Influenza A virus, H1N1, MDCK
  EC50: 2.08 nM
  EC90: 3.22 nM
[2]; Influenza A virus, H1N1, MDCK, read-out: mean EC50
  EC50: 5 nM
[21]
  EC50: 26.3 nM
  EC90: 50.6 nM
[22]
  EC50: 2.2 nM
  EC90: 3.41 nM
A/WSN/1933 (H1N1)
  EC50: 115 nM
  EC90: 191 nM
[23]
  EC50: 65 nM
[24]
  EC50: 1.85 nM
  EC90: 5.12 nM
